Measurements published in article PMC8637440, “Structural Modifications Yield Novel Insights Into the Intriguing Pharmacodynamic Potential of Anti-inflammatory Nitro-Fatty Acids” (Frontiers in Pharmacology, 2021).

tested on: NF-κB p65; experiment: NF-κB p65 transcription factor ELISA in TNFα-stimulated HCT-116 cells; format: cell-based; settings: Homo sapiens; 10 µM, 14 h preincubation, then 10 ng/ml TNF-α 4 h, HCT-116, ELISA; read-out: inhibition of NF-κB p65 signaling
Experimental: The Nrf-2 and NF-κB transcription factors in the nuclear extracts were detected using an Nrf-2 Transcription Assay Kit (Cayman Chemical, # 600590) and NF-κB (p65 and p50) Transcription Factor Assay Kit (Cayman Chemical, # 10007889 and # 10006912). Prior to assay performance, the nuclear extracts were generated using a Nuclear Extraction Kit (Cayman Chemical, # 10009277). The assay was performed according to the manufacturer’s instructions. For all kits, the nuclear extracts were incubated overnight at 4°C. Development was carried out for 15–20 min or until the wells turned medium to dark blue. Five minutes after the stop solution had been added, the absorbance was read at 450 nm using a plate reader.
The proteasome inhibitor MG132 ([Lee and Goldberg, 1998]) was used as a positive control, as proteasomal inhibition leads to stabilization of I-κB and thus inhibits the activation of the NF-κB signaling pathway. We used a MG132 incubation period of 4 h as longer incubations have been described to activate NF-κB signaling ([Lee et al., 2013]).
FIGURE 1 Effects of NFA on the NF-κB p65 and p50 signaling pathway in colorectal cancer cells. […] Incubation for 4 h with the proteasome inhibitor MG132 (1 µM) served as the positive control. […] Values are normalized to protein concentration and unstimulated vehicle control. Data are represented as mean ± SD of (A) n = 3 (DMSO, 16.9.9, 9NOA control of right panel, 18.4.4, 18.6.7, and 18.9.10), n = 4 (all other derivatives) and (B) n = 5. Statistical significance was calculated by one-way analysis of variance (ANOVA) with Bonferroni post-test. *p ≤ 0.03, **p ≤ 0.0021, ***p ≤ 0.0002, ****p ≤ 0.0001 were considered significant versus TNF-α treatment.

| SMILES | inhibition at 10 µM [%] |
| --- | --- |
| CCCCCCCCCCC=C(CCCCCC(=O)O)[N+](=O)[O-] [18.7.7, 7-nitro-octadec-7-enoic acid] | ~90 |
| CCCCCCCCCC=C(CCCCCCC(=O)O)[N+](=O)[O-] [18.8.8, 8-nitro-octadec-8-enoic acid] | 50 |
| CCCCCCCCCC(=CCCCCCCC(=O)O)[N+](=O)[O-] [18.8.9, 9-nitro-octadec-8-enoic acid] | 50 |
| CCCCCCCCC=C(CCCCCCCC(=O)O)[N+](=O)[O-] [18.9.9, 9-nitro-octadec-9-enoic acid] | 50 |

molecular target: T1, 12-LO (Homo sapiens, UniProt P18054); experiment: 12-HETE formation in intact PMNL, A23187 in absence of AA; format: cell-based; settings: read-out: PMNL (w/o AA) 12-HETE IC50
T1 construct: endogenous in cells; host or cells: platelet impurities in human PMNL preparations
T1 sequence (P18054 1-663): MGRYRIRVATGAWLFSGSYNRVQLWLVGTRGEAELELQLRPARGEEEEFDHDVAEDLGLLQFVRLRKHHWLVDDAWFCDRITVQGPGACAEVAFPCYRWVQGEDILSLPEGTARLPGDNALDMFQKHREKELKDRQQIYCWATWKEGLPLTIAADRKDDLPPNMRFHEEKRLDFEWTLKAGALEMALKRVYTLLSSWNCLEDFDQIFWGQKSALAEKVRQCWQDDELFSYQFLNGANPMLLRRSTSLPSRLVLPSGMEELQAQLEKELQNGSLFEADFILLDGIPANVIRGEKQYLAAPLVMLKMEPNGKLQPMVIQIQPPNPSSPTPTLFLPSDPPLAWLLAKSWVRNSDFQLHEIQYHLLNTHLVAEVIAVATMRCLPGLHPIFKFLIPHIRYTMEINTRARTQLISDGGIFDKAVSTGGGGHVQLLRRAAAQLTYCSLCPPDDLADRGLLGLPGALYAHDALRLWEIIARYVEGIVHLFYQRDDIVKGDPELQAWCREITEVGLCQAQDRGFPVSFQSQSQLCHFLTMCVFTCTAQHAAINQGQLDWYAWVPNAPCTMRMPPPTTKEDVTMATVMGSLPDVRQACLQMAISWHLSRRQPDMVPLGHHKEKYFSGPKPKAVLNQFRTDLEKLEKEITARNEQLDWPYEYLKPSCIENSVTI

| SMILES | IC50 [µM] |
| --- | --- |
| CCCCCCCCC=C(CCCCCCCC(=O)O)[N+](=O)[O-] [18.9.9, 9-nitro-octadec-9-enoic acid] | 6.26 ± 0.823 |
| CCCCCCCCCCC=C(CCCCCCCC(=O)O)[N+](=O)[O-] [20.9.9, 9-nitro-eicos-9-enoic acid] | 15.5 ± 0.74 |
